Experimental data from patent US20250195536A1, “BICYCLOOCTANE KRAS INHIBITORS” (Incyte Corporation, priority 2023, published 2025).

Experiments:
KRAS G12V = KRAS G12V (Homo sapiens, UniProt P01116, G12V); assay: GDP-GTP exchange assay (KRAS G12V); type: biochemical; details: bodipy-GDP/GppNHp exchange with SOS1; 3 h incubation after GppNHp-SOS1;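 also: one dagger IC50 up to 100 nM and two daggers above 100 nM up to 1 μM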
How it was run: (§1)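 Bodipy-GDP-loaded KRAS (2.5 nM final) was pre-incubated 4 h at r.t. with inhibitor in Hepes pH 7.5 buffer with MgCl2, then exchange started with GppNHp (500 μM) and SOS1 (150 nM) final. Fluorescence (ex 485/em 520 nm) read after 2 h for G12D, 3 h for G12V; IC50 from four-parameter logistic fit.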

KRAS G12D = KRAS G12D (Homo sapiens, UniProt P01116, G12D); assay: GDP-GTP exchange assay (KRAS G12D); type: biochemical; details: bodipy-GDP/GppNHp exchange with SOS1; 4 h pre-incubation, 2 h reaction;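 also: one dagger IC50 up to 100 nM and two daggers above 100 nM up to 1 μM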
How it was run: as §1

[1] = Caco2 assay (permeability, Papp A-B); type: in vitro ADME; details: human, Caco-2, absorptive direction (A-B), 50 μM test compound, 4% BSA in receiver
How it was run: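 Caco-2 monolayers, 22-25 days on Transwells, TEER 300 Ω·cm^2, dosed apically with 50 μM compound in HBSS; basolateral HBSS with 4% BSA. 120 min at 37 °C, samples quantified by LCMS; Papp (A-B) from receiver-side cumulative flux slope, donor volume, surface area and initial donor amount.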

KRAS G12V, sequence (P01116 1-188 isoform P01116-2 G12V): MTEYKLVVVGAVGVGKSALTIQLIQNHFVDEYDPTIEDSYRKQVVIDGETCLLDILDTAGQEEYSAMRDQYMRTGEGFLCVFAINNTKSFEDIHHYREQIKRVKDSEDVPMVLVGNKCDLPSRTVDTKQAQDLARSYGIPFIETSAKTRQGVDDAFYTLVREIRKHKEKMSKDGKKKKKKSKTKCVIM
KRAS G12D, sequence (P01116 1-188 isoform P01116-2 G12D): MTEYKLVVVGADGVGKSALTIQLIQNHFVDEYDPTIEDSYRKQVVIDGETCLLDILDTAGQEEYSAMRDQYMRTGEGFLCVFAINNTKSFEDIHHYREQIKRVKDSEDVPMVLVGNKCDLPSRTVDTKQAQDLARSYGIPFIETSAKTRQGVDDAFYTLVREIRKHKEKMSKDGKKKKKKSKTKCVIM

| SMILES | G12V_exchange (KRAS_G12V exchange assay IC50) (KRAS G12V) | G12D_exchange (KRAS_G12D exchange assay IC50) (KRAS G12D) | Papp A→B at 120 min, 50 μM [1] [×10⁻⁶ cm/s] |
| --- | --- | --- | --- |
| Cc1nc2c(F)c(-c3cccc(Cl)c3Cl)c(CCC#N)cc2c2c1cc([C@H]1[C@H]3C[C@H](CN(c4ccnc(Br)c4)C3)N1C(=O)C1CC1)n2[C@H]1[C@H]2CN[C@@H]1C2 (atropisomer, axis not shown; (Ra)) [Example 74, 3-((Ra)-1-((1R,4R,5S)-2-azabicyclo[2.1.1]hexan-5-yl)-2-((1S,5R,7R)-3-(2-bromopyridin-4-yl)-6-(cyclopropanecarbonyl)-3,6-diazabicyclo[3.2.1]octan-7-yl)-7-(2,3-dichlorophenyl)-6-fluoro-4-methyl-1H-pyrrolo[3,2-c]quinolin-8-yl)propanenitrile] | † | † | ≤ 0.5 |
| Cc1c(N2C[C@@H]3C[C@H](C2)N(C(=O)C2CC2)[C@H]3c2cc3c(C)nc4c(F)c(-c5cccc(Cl)c5Cl)c(CCC#N)cc4c3n2[C@H]2[C@H]3CN[C@@H]2C3)ccnc1F (atropisomer, axis not shown; (Ra)) [Example 76, 3-((Ra)-1-((1R,4R,5S)-2-azabicyclo[2.1.1]hexan-5-yl)-2-((1S,5R,7R)-6-(cyclopropanecarbonyl)-3-(2-fluoro-3-methylpyridin-4-yl)-3,6-diazabicyclo[3.2.1]octan-7-yl)-7-(2,3-dichlorophenyl)-6-fluoro-4-methyl-1H-pyrrolo[3,2-c]quinolin-8-yl)propanenitrile] | † | † | 0.5 to 1 |
| COc1cc(N2C[C@@H]3C[C@H](C2)N(C(=O)C2CC2)[C@H]3c2cc3c(C)nc4c(F)c(-c5cccc(Cl)c5Cl)c(CCC#N)cc4c3n2[C@H]2[C@H]3CN[C@@H]2C3)cc(C)n1 (atropisomer, axis not shown; (Ra)) [Example 78, 3-((Ra)-1-((1R,4R,5S)-2-azabicyclo[2.1.1]hexan-5-yl)-2-((1S,5R,7R)-6-(cyclopropanecarbonyl)-3-(2-methoxy-6-methylpyridin-4-yl)-3,6-diazabicyclo[3.2.1]octan-7-yl)-7-(2,3-dichlorophenyl)-6-fluoro-4-methyl-1H-pyrrolo[3,2-c]quinolin-8-yl)propanenitrile] | † | † | ≤ 0.5 |
| Cc1cc(N2C[C@@H]3C[C@H](C2)N(C(=O)C2CC2)[C@H]3c2cc3c(C)nc4c(F)c(-c5cccc(Cl)c5Cl)c(CCC#N)cc4c3n2[C@H]2[C@H]3CN[C@@H]2C3)cc(F)n1 (atropisomer, axis not shown; (Ra)) [Example 79, 3-((Ra)-1-((1R,4R,5S)-2-azabicyclo[2.1.1]hexan-5-yl)-2-((1S,5R,7R)-6-(cyclopropanecarbonyl)-3-(2-fluoro-6-methylpyridin-4-yl)-3,6-diazabicyclo[3.2.1]octan-7-yl)-7-(2,3-dichlorophenyl)-6-fluoro-4-methyl-1H-pyrrolo[3,2-c]quinolin-8-yl)propanenitrile] | † | † | ≤ 0.5 |
| Cc1cc(N2C[C@@H]3C[C@H](C2)N(C(=O)C2CC2)[C@H]3c2cc3c(C)nc4c(F)c(-c5cccc(Cl)c5Cl)c(CCC#N)cc4c3n2[C@H]2[C@H]3CN[C@@H]2C3)cc(=O)o1 (atropisomer, axis not shown; (Ra)) [Example 80] | † | † | ≤ 0.5 |
| CCOc1cc(N2C[C@@H]3C[C@H](C2)N(C(=O)C2CC2)[C@H]3c2cc3c(C)nc4c(F)c(-c5cccc(Cl)c5Cl)c(CCC#N)cc4c3n2[C@H]2[C@H]3CN[C@@H]2C3)ccn1 (atropisomer, axis not shown; (Ra)) [Example 81, 3-((Ra)-1-((1R,4R,5S)-2-azabicyclo[2.1.1]hexan-5-yl)-2-((1S,5R,7R)-6-(cyclopropanecarbonyl)-3-(2-ethoxypyridin-4-yl)-3,6-diazabicyclo[3.2.1]octan-7-yl)-7-(2,3-dichlorophenyl)-6-fluoro-4-methyl-1H-pyrrolo[3,2-c]quinolin-8-yl)propanenitrile] | † | † | ≤ 0.5 |
| COCCOc1cc(N2C[C@@H]3C[C@H](C2)N(C(=O)C2CC2)[C@H]3c2cc3c(C)nc4c(F)c(-c5cccc(Cl)c5Cl)c(CCC#N)cc4c3n2[C@H]2[C@H]3CN[C@@H]2C3)ccn1 (atropisomer, axis not shown; (Ra)) [Example 83, 3-((Ra)-1-((1R,4R,5S)-2-azabicyclo[2.1.1]hexan-5-yl)-2-((1S,5R,7R)-6-(cyclopropanecarbonyl)-3-(2-(2-methoxyethoxy)pyridin-4-yl)-3,6-diazabicyclo[3.2.1]octan-7-yl)-7-(2,3-dichlorophenyl)-6-fluoro-4-methyl-1H-pyrrolo[3,2-c]quinolin-8-yl)propanenitrile] | † | † | ≤ 0.5 |

Further lines, results first:

| G12V_exchange (KRAS_G12V exchange assay IC50) (KRAS G12V) | G12D_exchange (KRAS_G12D exchange assay IC50) (KRAS G12D) | Papp A→B at 120 min, 50 μM [1] [×10⁻⁶ cm/s] | SMILES |
| --- | --- | --- | --- |
| † | † | ≤ 0.5 | Cc1cc(N2C[C@@H]3C[C@H](C2)N(C(=O)C2CC2)[C@H]3c2cc3c(C)nc4c(F)c(-c5cccc(Cl)c5Cl)c(CCC#N)cc4c3n2[C@H]2[C@H]3CN[C@@H]2C3)cc(C(F)F)n1 (atropisomer, axis not shown; (Ra)) [Example 84, 3-((Ra)-1-((1R,4R,5S)-2-azabicyclo[2.1.1]hexan-5-yl)-2-((1S,5R,7R)-6-(cyclopropanecarbonyl)-3-(2-(difluoromethyl)-6-methylpyridin-4-yl)-3,6-diazabicyclo[3.2.1]octan-7-yl)-7-(2,3-dichlorophenyl)-6-fluoro-4-methyl-1H-pyrrolo[3,2-c]quinolin-8-yl)propanenitrile] |
| † | † | ≤ 0.5 | Cc1nc2c(F)c(-c3cccc(Cl)c3Cl)c(CCC#N)cc2c2c1cc([C@H]1[C@H]3C[C@H](CN(c4cc(C(F)F)c(F)cn4)C3)N1C(=O)C1CC1)n2[C@H]1[C@H]2CN[C@@H]1C2 (atropisomer, axis not shown; (Ra)) [Example 85, 3-((Ra)-1-((1R,4R,5S)-2-azabicyclo[2.1.1]hexan-5-yl)-2-((1S,5R,7R)-6-(cyclopropanecarbonyl)-3-(4-(difluoromethyl)-5-fluoropyridin-2-yl)-3,6-diazabicyclo[3.2.1]octan-7-yl)-7-(2,3-dichlorophenyl)-6-fluoro-4-methyl-1H-pyrrolo[3,2-c]quinolin-8-yl)propanenitrile] |
| † | † | ≤ 0.5 | Cc1nc2c(F)c(-c3cccc(Cl)c3Cl)c(CCC#N)cc2c2c1cc([C@H]1[C@H]3C[C@H](CN(c4cccc(OC(F)F)n4)C3)N1C(=O)C1CC1)n2[C@H]1[C@H]2CN[C@@H]1C2 (atropisomer, axis not shown; (Ra)) [Example 86, 3-((Ra)-1-((1R,4R,5S)-2-azabicyclo[2.1.1]hexan-5-yl)-2-((1S,5R,7R)-6-(cyclopropanecarbonyl)-3-(6-(difluoromethoxy)pyridin-2-yl)-3,6-diazabicyclo[3.2.1]octan-7-yl)-7-(2,3-dichlorophenyl)-6-fluoro-4-methyl-1H-pyrrolo[3,2-c]quinolin-8-yl)propanenitrile] |
| † | † | ≤ 0.5 | Cc1nc2c(F)c(-c3cccc(Cl)c3Cl)c(CCC#N)cc2c2c1cc([C@H]1[C@H]3C[C@H](CN(c4nccc(C(F)F)n4)C3)N1C(=O)C1CC1)n2[C@H]1[C@H]2CN[C@@H]1C2 (atropisomer, axis not shown; (Ra)) [Example 87, 3-((Ra)-1-((1R,4R,5S)-2-azabicyclo[2.1.1]hexan-5-yl)-2-((1S,5R,7R)-6-(cyclopropanecarbonyl)-3-(4-(difluoromethyl)pyrimidin-2-yl)-3,6-diazabicyclo[3.2.1]octan-7-yl)-7-(2,3-dichlorophenyl)-6-fluoro-4-methyl-1H-pyrrolo[3,2-c]quinolin-8-yl)propanenitrile] |
| † | † | ≤ 0.5 | Cc1nc2c(F)c(-c3cccc(Cl)c3Cl)c(CCC#N)cc2c2c1cc([C@H]1[C@H]3C[C@H](CN(c4cccc(C(F)F)n4)C3)N1C(=O)C1CC1)n2[C@H]1[C@H]2CN[C@@H]1C2 (atropisomer, axis not shown; (Ra)) [Example 88, 3-((Ra)-1-((1R,4R,5S)-2-azabicyclo[2.1.1]hexan-5-yl)-2-((1S,5R,7R)-6-(cyclopropanecarbonyl)-3-(6-(difluoromethyl)pyridin-2-yl)-3,6-diazabicyclo[3.2.1]octan-7-yl)-7-(2,3-dichlorophenyl)-6-fluoro-4-methyl-1H-pyrrolo[3,2-c]quinolin-8-yl)propanenitrile] |
| † | † | ≤ 0.5 | Cc1nc2c(F)c(-c3cccc(Cl)c3Cl)c(CCC#N)cc2c2c1cc([C@H]1[C@H]3C[C@H](CN(c4cc(C(F)F)ccn4)C3)N1C(=O)C1CC1)n2[C@H]1[C@H]2CN[C@@H]1C2 (atropisomer, axis not shown; (Ra)) [Example 89, 3-((Ra)-1-((1R,4R,5S)-2-azabicyclo[2.1.1]hexan-5-yl)-2-((1S,5R,7R)-6-(cyclopropanecarbonyl)-3-(4-(difluoromethyl)pyridin-2-yl)-3,6-diazabicyclo[3.2.1]octan-7-yl)-7-(2,3-dichlorophenyl)-6-fluoro-4-methyl-1H-pyrrolo[3,2-c]quinolin-8-yl)propanenitrile] |
